Assay results published in PMC12624573, “The antigen presentation landscape of cytokine-stressed human pancreatic islets” (Cell reports, 2025).

Legend:
[1] = test system: CD8+ T cells from PBMC; assay: IFN-γ ELISpot, PBMC-derived in vitro expanded CD8+ T cell lines; type: cell-based, human; conditions: PBMC T cell lines, responding donors/donors tested
[2] = test system: islet-derived T cell lines; assay: Cytokine bead array (IFN-γ, TNF-α, IL-10), combined islet-derived T cell lines from donors with T1D; conditions: for islet derived T cell lines response to A2-S peptide pools or to single peptides: class I (A2) peptide pools or single peptides; for islet derived T cell lines response to A2-S peptide pools or to single peptides / islet derived T cell lines response to DR peptide pools or to single peptides: IFNg, TNFa, IL-10 secretion; for islet derived T cell lines response to DR peptide pools or to single peptides: class II (DR) peptide pools or single peptides
Protocol: Live pancreas slices (150–200 μm thick) were provided by nPOD. […] Ten slices were digested with 1 mg/mL collagenase-P (Sigma) in PBS at 37°C with shaking with a magnetic stir bar, with tissue dispersal visually monitored. After washing, islets were enriched by hand-picking, and single-islet-derived T-cell lines generated as described[51] with modifications. Single islets were plated in wells of 96 well round bottom plates (CoStar) on irradiated (5000 rads) allogeneic PBMC with AIM-V media (Thermo Fisher Scientific) supplemented with 2 mM L-glutamine, 5 mM HEPES, and 100 U/ml penicillin and 100 μg/mL streptomycin, 0.1 mM each non-essential amino acids, 1 mM sodium pyruvate, and 5% heat-inactivated human male AB serum (Grifols Diagnostic) with 5 μg/mL each of anti-CD3, anti-CD28 (BioLegend), anti-PD-1 (ligand blocking clone EH12.1, BD Biosciences) and anti-Fas (clone SM1/23: Thermo Fisher Scientific) with 20 U/ml IL-2, and 10 ng/mL IL-15 (R&D), and 50 nM mifepristone (Thermo Fisher Scientific). The lymphocytic outgrowth from individual islets was collected, re-plated, allowed to expand with IL-2 and IL-15, and cryopreserved in early passage (P1-P3). For these experiments, 7–10 T cell lines derived from single islets from each donor were combined. Each combined T cell line contained either >60% CD4 or CD8 T cells. For some experiments in order to enriched for any reactive T cells, combined islet-derived T cell lines were stimulated with individual peptides pools with the inclusion of 5 μg/mL soluble anti-CD28 (BD Biosciences), fed with 20 U/mL recombinant IL-2 (Proleukin) and recombinant 10 ng/mL IL-15 (R&D Systems) on Day 1, allowed to rest for 4–6 days, and then re-tested for reactivity to that peptide pool.
For islet-derived combined T cellana lines, either irradiated A*02:01-Hmy.2B-LCL or DRB1*03:01-expressing QBL B-LCL (Millipore Sigma) were pulsed for 2 h with indicated pools of peptides (each peptide at 2.5 μg/mL), washed and then co-cultured at 2x10^4/cells well with combined T cell lines at 5x10^4/cell in 96-well round bottom plates (CoStar) in 5%, heat-inactivated 5% human male AB serum (Grifols Diagnostic) in AimV (ThermoFisher) supplemented with 10 mM HEPES buffer, 2 mM L-glutamine, and 100 U/100 μg/ml penicillin/streptomycin (ThermoFisher) and 2.5 μg/mL soluble anti-CD28 (BD BioSciences). On Day 1, 20 U/mL recombinant IL-2 (Proleukin) and recombinant and 10 ng/mL IL-15 (R&D Systems) was added to all conditions.

[3] = test system: CD4+ T cells from PBMC; assay: IFN-γ ELISpot, PBMC-derived in vitro expanded CD4+ T cell lines; type: cell-based, human; design: key to T cell recognition by PBMC from a T1D donor (mark E) / T cell recognition by PBMC from a T1D donor: E: T cell recognition by PBMC from a T1D donor was tested and verified; see Figure 5; conditions: for T1D Donor T cell response / non-T1D Donor T cell response: PBMC T cell lines, responding donors/donors tested; for T cell recognition by PBMC from a T1D donor (mark E) / T cell recognition by PBMC from a T1D donor: MHC-II peptides; for T cell recognition by PBMC from a T1D donor (mark E): tested and verified, see Figure 5; for Number of donors whose CD4 T cells recognized the peptide (IFN-γ ELISpot): T1D donors, PBMC-derived lines (Figure 5J); for IFN-γ ELISpot response of expanded CD4+ T cells: control donor LSLP-074, frequencies ∼10-fold lower than for T1D-004 (Figures 5E, 5F, S5B); for T cell recognition by PBMC from a T1D donor: superscript E on the peptide, G = verified with QBL cells; for IFN-γ ELISpot response of expanded CD4 T cells: control donor LSLP-153, line expanded with megapool HPAP-DR3 + SEC-DR3, tested with individual peptides (Figure S5C)
[4] = SEC (Secretory) A2 Peptides Set
[5] = PTM and unmodified native Pool Peptides (pool PTM 1), long peptides
[6] = DRB1*03:01+ donor 6579, cytokine bead array (Figures 6I–6K)
[7] = PTM and unmodified native Pool Peptides (pool PTM 1), 9-mer peptides
[8] = SEC (Secretory) DR3 Peptides Set
[9] = donor 6551, cytokine bead array, 48 h (Figures 6A–6C)

## AAAFVNQHL [compound 171]
[1]; [4]
  T1D Donor T cell response: 0/6
  non-T1D Donor T cell response: 0/4
[2]; donor 6551 lines
  islet derived T cell lines response to A2-S peptide pools or to single peptides: donors 6551 and 6578 lines negative
[2]; donor 6578 lines
  islet derived T cell lines response to A2-S peptide pools or to single peptides: donors 6551 and 6578 lines negative

## AVPEEEGPTVVLXPHPSLG [148–1]
[3]; [5]
  T1D Donor T cell response: 0/4
  non-T1D Donor T cell response: 0/4
[2]; [6]
  IFN-γ secretion, islet-derived T cell lines: recognized
  IL-10 secretion, islet-derived T cell lines: recognized
  TNF-α secretion, islet-derived T cell lines: recognized
[2]; donor 6550 lines
  islet derived T cell lines response to DR peptide pools or to single peptides: donor 6550 lines negative
[2]; donor 6579 lines, listed as 148-1
  islet derived T cell lines response to DR peptide pools or to single peptides: donor 6579 lines positive with TNFa and IL-10 secretion

## AVPEEEGPTVVLXPHPSLG [148–2]
[2]; donor 6579 lines, listed as 148-2
  islet derived T cell lines response to DR peptide pools or to single peptides: donor 6579 lines positive with IFNg, TNFa and IL-10 secretion

## EADFAIEAL [150-1]
[1]; [7]
  T1D Donor T cell response: 0/6
  non-T1D Donor T cell response: 0/4
[2]; donor 6551 lines
  islet derived T cell lines response to A2-S peptide pools or to single peptides: donor 6551 lines positive with IFNg, TNFa, IL10 secretion

## IGEETVITVDTKAAGKGK [peptide 14]
[3]; DR3/DQ Set Peptides
  T1D Donor T cell response: 0/4
  non-T1D Donor T cell response: 0/2

## IPGYIVDDSVRVEQ [peptide 19]
[3]; DR3/DQ Set Peptides
  T1D Donor T cell response: 0/4
  non-T1D Donor T cell response: 0/2

## ITSIVKDSSAARNGL
[3]
  T cell recognition by PBMC from a T1D donor (mark E): ITS IVKDSSAAR NGL ^ E

## ITSIVKDSSAARNGL [peptide 18]
[3]; DR3/DQ Set Peptides
  T1D Donor T cell response: 2/4
  non-T1D Donor T cell response: 0/2

## KARFAKQPAYTLVDR
[3]
  T cell recognition by PBMC from a T1D donor (mark E): KAR FAKQPAYTL VDR ^ E

## KARFAKQPAYTLVDR [compound 24]
[3]; DR3/DQ Set Peptides
  T1D Donor T cell response: 3/4
  non-T1D Donor T cell response: 2/2
[3]
  Number of donors whose CD4 T cells recognized the peptide (IFN-γ ELISpot): three of the donors
  IFN-γ ELISpot response of expanded CD4+ T cells: responded

## KQGYQLIEGNQVLHS [compound 20]
[3]; DR3/DQ Set Peptides
  T1D Donor T cell response: 0/4
  non-T1D Donor T cell response: 0/2

## KRPAIWIDTGIHSRE
[3]
  T cell recognition by PBMC from a T1D donor (mark E): KRPA IWIDTGIHS RE ^ E

## KRPAIWIDTGIHSRE [peptide 10]
[3]; DR3/DQ Set Peptides
  T1D Donor T cell response: 4/4
  non-T1D Donor T cell response: 2/2
[3]
  Number of donors whose CD4 T cells recognized the peptide (IFN-γ ELISpot): all four donors
  IFN-γ ELISpot response of expanded CD4+ T cells: responded

## KSIYFVAGL [compound 173]
[1]; [4]
  T1D Donor T cell response: 0/6
  non-T1D Donor T cell response: 0/4
[2]; donor 6551 lines
  islet derived T cell lines response to A2-S peptide pools or to single peptides: donors 6551 and 6578 lines negative
[2]; donor 6578 lines
  islet derived T cell lines response to A2-S peptide pools or to single peptides: donors 6551 and 6578 lines negative

## LEKDIISDTSGDFRK [compound 8]
[3]; DR3/DQ Set Peptides
  T1D Donor T cell response: 0/4
  non-T1D Donor T cell response: 0/2

## LNKSINPDEAVAYGAA
[3]
  T cell recognition by PBMC from a T1D donor: LNKS INPDEAVAY GAA ^ E

## LNKSINPDEAVAYGAA [peptide 15]
[3]; DR3/DQ Set Peptides
  T1D Donor T cell response: 1/4
  non-T1D Donor T cell response: 0/2

## NPAEFVVNTSNAGAG
[3]
  T cell recognition by PBMC from a T1D donor (mark E): NPAE FVVNTSNAG AG ^ E

## NPAEFVVNTSNAGAG [compound 22]
[3]; DR3/DQ Set Peptides
  T1D Donor T cell response: 0/4
  non-T1D Donor T cell response: 0/2

## NPANPAILSEASAPIPHDG [compound 27]
[3]; DR3/DQ Set Peptides
  T1D Donor T cell response: 0/4
  non-T1D Donor T cell response: 0/2

## NYPSLELDKMAHG
[3]
  T cell recognition by PBMC from a T1D donor (mark E): NYPSLELDKMAHG ^ E

## NYPSLELDKMAHG [peptide 182]
[3]; [8]
  T1D Donor T cell response: 0/4
  non-T1D Donor T cell response: 0/4
[2]; [6]
  IL-10 secretion, islet-derived T cell lines: recognized
[2]; donor 6579 lines
  islet derived T cell lines response to DR peptide pools or to single peptides: donor 6579 lines positive with IL-10 secretion

## QDPELPDKNMFTINRNTGVIS
[3]
  T cell recognition by PBMC from a T1D donor (mark E): QDPELPDKNM FTINRNTGV IS ^ E

## QDPELPDKNMFTINRNTGVIS [compound 29]
[3]; DR3/DQ Set Peptides
  T1D Donor T cell response: 2/4
  non-T1D Donor T cell response: 0/2

## QSIEGGAHEGLQHLGP
[3]
  T cell recognition by PBMC from a T1D donor: QS IEGGAHEGL QHLGP ^ E

## RPLNEQIAEAEEED [compound 187, secretory hormone eluted peptide from SCG3, pool SEC DR3]
[3]; [8]
  T1D Donor T cell response: 0/4
  non-T1D Donor T cell response: 1/4
[3]
  IFN-γ ELISpot response of expanded CD4 T cells: IFN-γ responses

## RQRYEILTPNSIPK
[3]
  T cell recognition by PBMC from a T1D donor (mark E): RQR YEILTPNS IPK ^ E

## RQRYEILTPNSIPK [compound 26]
[3]; DR3/DQ Set Peptides
  T1D Donor T cell response: 2/4
  non-T1D Donor T cell response: 0/2

## RSAAVLALL [compound 175]
[1]; [4]
  T1D Donor T cell response: 1/5
  non-T1D Donor T cell response: 0/4
[2]; [9]
  IFN-γ secretion, islet-derived T cell lines: strong
  IL-10 secretion, islet-derived T cell lines: strong
  TNF-α secretion, islet-derived T cell lines: strong
[2]; donor 6551 lines
  islet derived T cell lines response to A2-S peptide pools or to single peptides: donor 6551 lines positive for IFNg, TNFa, IL10 secretion

## SANLHGGDLVANYPY [compound 155]
[3]; HPAP-DR3 Pool Peptides
  T1D Donor T cell response: 0/4
  non-T1D Donor T cell response: 0/4

## SQGLVDREKGLSAEPGWQA [compound 180, secretory hormone eluted peptide from CHGA, pool SEC DR3]
[3]; [8]
  T1D Donor T cell response: 0/4
  non-T1D Donor T cell response: 1/4
[3]
  IFN-γ ELISpot response of expanded CD4 T cells: IFN-γ responses

## SSPLDNKLNVEDVDSTKN [compound 188, secretory hormone eluted peptide from SCG3, pool SEC DR3]
[3]; [8]
  T1D Donor T cell response: 0/4
  non-T1D Donor T cell response: 1/4
[3]
  IFN-γ ELISpot response of expanded CD4 T cells: IFN-γ responses

## SVPHFSDEDKDPE [compound 147, non-modified native peptide, pool PTM DR3]
[3]; [5]
  T1D Donor T cell response: 0/4
  non-T1D Donor T cell response: 0/4

## SVPHFXDEDKDPE [147-1, PTM peptide, X=phosphoserine, pool PTM DR3]
[3]; [5]
  T1D Donor T cell response: 0/4
  non-T1D Donor T cell response: 0/4

## TPGNALVVDPKKPFRK
[3]
  T cell recognition by PBMC from a T1D donor (mark E): TPGNA LVVDPKKPF RK ^ E

## TPGNALVVDPKKPFRK [compound 13]
[3]; DR3/DQ Set Peptides
  T1D Donor T cell response: 3/4
  non-T1D Donor T cell response: 1/2
[3]
  IFN-γ ELISpot response of expanded CD4+ T cells: responded

## VPGNALVVDPRRPFRK
[3]
  T cell recognition by PBMC from a T1D donor (mark E): VPGNA LVVDPRRPF RK ^ E

## VPGNALVVDPRRPFRK [compound 12]
[3]; DR3/DQ Set Peptides
  T1D Donor T cell response: 1/4
  non-T1D Donor T cell response: 0/2

## VPIDIDKTKVQNIHPVESA [compound 4]
[3]; DR3/DQ Set Peptides
  T1D Donor T cell response: 0/4
  non-T1D Donor T cell response: 0/2

## VPIDIDKTKVQNIHPVESA [compound 152]
[3]; HPAP-DR3 Pool Peptides
  T1D Donor T cell response: 0/4
  non-T1D Donor T cell response: 0/4

## WRPSLVPASAENVNKA
[3]
  T cell recognition by PBMC from a T1D donor (mark E): WRPS LVPASAENV NKA ^ E

## WRPSLVPASAENVNKA [compound 23]
[3]; DR3/DQ Set Peptides
  T1D Donor T cell response: 2/4
  non-T1D Donor T cell response: 0/2

## YYNLEKDVKQFRRKDS [peptide 3]
[3]; DR3/DQ Set Peptides
  T1D Donor T cell response: 0/4
  non-T1D Donor T cell response: 0/2

## YYYIQQDTKGDYQK [peptide 7]
[3]; DR3/DQ Set Peptides
  T1D Donor T cell response: 0/4
  non-T1D Donor T cell response: 0/2
